Holding throughout (experiment): DTP human tumour cell line panel, 48 h
Experiment [1] concerns SW-620 colon.
In experiment [2] the test system is IGROV1 ovarian.
The subject of experiment [3] is MCF7 breast.
Experiment [4] relates to UACC-62 melanoma.
Experiment [5] relates to HOP-92 NSCLC.
Experiment [6] relates to HCT-116 colon.
For experiment [7], the system named is HS 578T breast.
Experiment [8] relates to NCI-H460 lung.
The test system of experiment [9] is MDA-MB-231 breast.
In experiment [10] the test system is CCRF-CEM leukemia.

The text below walks through data of PubChem BioAssay (NCI).

The structures appear in SMILES notation. “And” between values parts separate entries of the source, which are not always exact repeats. Equal entries are not always repeated.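 All cell lines were grown in 96-well plates and treated with compound for 48 hours. Here, GI50 denotes the concentration required for 50% inhibition of growth. TGI marks complete inhibition of growth.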 Some results are limits rather than exact numbers.

For `Cc1ccc([N+](=O)[O-])cc1S(=O)(=O)Nc1ccc(C2=NN(S(=O)(=O)c3cc([N+](=O)[O-])ccc3C)C(c3cccs3)C2)cc1` (centres undefined), the TGI was above 100 µM in experiment [1]; above 100 µM in experiment [2]; 82.1 µM in experiment [3]; 47.5 µM in experiment [4]; above 100 µM in [5]; 77 µM in [6]. Besides, the TGI in experiment [7] is 53.7 µM; in experiment [8] it was 94.6 µM; in [9], above 100 µM.
Regarding `CCC1c2[nH]c3ccccc3c2C[C@H]2C(=O)NC(C)C(=O)N12` (some centres undefined), the TGI in experiment [1], in experiment [2], in experiment [3], in [4], in [5] and in experiment [6] was above 100 µM each time. Moreover, the TGI in experiment [7] and in [9] was above 100 µM each time.
For the compound `O=C1/C(=C/c2cccc([N+](=O)[O-])c2)N=C(c2ccccc2)N1c1nc2ccc(Sc3ccccc3)cc2[nH]1`, the TGI in experiment [1], in experiment [2], in [3], in experiment [4], in experiment [5] and in experiment [6] was above 100 µM in each case. The TGI in experiment [7], in [8] and in [9] was above 100 µM each time.
In the case of `N=c1oc2ccc3ccccc3c2cc1-c1nc2ccccc2c(=O)[nH]1`, the TGI in [1] is above 100 µM; in [2], 75.9 µM; in experiment [3] it was 30 µM; in experiment [4], 44.1 µM; in [5] it was 41.9 µM; in experiment [6], above 100 µM. Also, the TGI in experiment [7] was 87.6 µM; in experiment [8], above 100 µM; in experiment [9], 73.4 µM.
As for `COc1ccc2[nH]c3ccc4cc[n+](CCN5CCC(C6CCN(CC[n+]7ccc8ccc9[nH]c%10ccc(OC)cc%10c9c8c7)CC6)CC5)cc4c3c2c1`, the total growth inhibition concentration (TGI) was above 36.9 µM in experiment [1]; 50 µM and > 19 µM in [2]; 50 µM and > 28.3 µM in experiment [3]; 50 µM and 17.7 µM in [4]; 28.1 µM and 5.47 µM in experiment [5]; 50 µM and > 57.1 µM in [6]. The TGI in experiment [7] is 50 µM; in experiment [10], 25.4 µM and 16.8 µM; in experiment [9], 50 µM. Besides, the GI50 was 0.269 µM in [2]; 0.313 µM and 0.488 µM in experiment [3]; 31 µM in experiment [4]; 27.7 µM in experiment [5]; 0.374 µM in [6]; 0.566 µM in [10].
Regarding `C/C(Cc1ccc2c(c1)OCO2)=N\N=c1\sc2ccccc2n1C`, the TGI in [1], in experiment [2], in experiment [3], in experiment [4], in experiment [5] and in experiment [6] was above 100 µM in each case. For the same compound, the TGI in experiment [7], in experiment [10] and in [9] was above 100 µM in each case.
Consider `CC1OC(NCCNCCNC2OC(C)C(O)C(O)C2O)C(O)C(O)C1O` (centres undefined), for which the TGI in experiment [1], in experiment [2], in experiment [3], in experiment [4], in [5] and in experiment [6] was above 100 µM throughout. Further, the TGI in experiment [7], in experiment [8] and in [9] was above 100 µM in each case.
On to `O=C(O)c1ccc2c(O)c(O)ccc2c1`, for which the TGI in experiment [1] was above 100 µM; in experiment [2] it was 38.2 µM; in [3], above 100 µM; in experiment [5] it was above 84.3 µM; in experiment [6] it was 79.7 µM; in experiment [7] it was 70.9 µM. The TGI in experiment [10] was above 31.6 µM; in experiment [9], 68.5 µM.
As to `COc1ccc(-c2c(C#N)c(N)[nH]c(=S)c2C#N)cc1`, the TGI in experiment [1] is above 100 µM; in experiment [2], above 100 µM; in [3], above 100 µM; in [4] it was above 100 µM; in [5], above 100 µM; in [6], 93.8 µM. For the same compound, the figures for the TGI in experiment [7], in [8] and in experiment [9] were 66.6 µM, above 100 µM and above 100 µM, respectively.
With `O=C1c2c(c3c4cc(F)ccc4oc3c3[nH]c4ccccc4c23)C(=O)N1O`, the GI50 was 1.24 µM in experiment [1]; 0.46 µM in experiment [2]; 0.596 µM in [3]; 1.48 µM in experiment [4]; 1.44 µM in experiment [5]; 2.53 µM in experiment [7]. In addition, the GI50 in [10] is 0.239 µM; in experiment [8], 0.565 µM; in [9] it was 2.68 µM. The TGI was above 100 µM in [1]; 11.1 µM in [2]; above 100 µM in [3]; 3.41 µM in experiment [4]; 5.15 µM in [5]; 9.59 µM in experiment [7]. For the same compound, the TGI in experiment [10] was above 100 µM; in experiment [8] it was 10.6 µM; in experiment [9], 21.6 µM.
Take `CC(=O)OCC1OC(n2c(C)c(C)cc(C#N)c2=S)C(OC(C)=O)C(OC(C)=O)C1OC(C)=O` (centres undefined): the TGI in experiment [1], in [2], in [3], in experiment [4], in experiment [5] and in [6] was above 100 µM in each case. For the same compound, the TGI in experiment [7], in experiment [8] and in experiment [9] was above 100 µM in each case.
As to `COc1ccc(-c2cc(-c3ccc(C)cc3)n(C3OC(COC(C)=O)C(OC(C)=O)C(OC(C)=O)C3OC(C)=O)c(=S)c2C#N)cc1` (centres undefined), the TGI in experiment [1], in experiment [2], in experiment [3], in experiment [4], in [5] and in experiment [6] was above 100 µM in each case. Moreover, the TGI in experiment [7], in experiment [8] and in experiment [9] was above 100 µM each time.
With `CC(C)CC1c2[nH]c3ccccc3c2C[C@H]2C(=O)NC(Cc3c[nH]c4ccccc34)C(=O)N12` (some centres undefined), the TGI is 58.5 µM in experiment [1]; 36 µM in experiment [2]; above 100 µM in experiment [3]; 36 µM in experiment [4]; 34.5 µM in experiment [5]; 25.7 µM in experiment [6]. The values for the TGI in experiment [7] and in experiment [9] were 26.2 µM and 49.9 µM, respectively.
